Measurements from ChEMBL document CHEMBL3991601, “The target landscape of clinical kinase drugs” (Science, 2017).
Activity calls are given as the source filed them. For most assays here, no stated cut-off is given here; in the data, actives have a measured Kd and inactives only a lower limit.

Tests used:
[1] = molecular target: Hepatocyte growth factor receptor (Homo sapiens, UniProt P08581)
[2] = molecular target: Cyclin-dependent kinase 17 (Homo sapiens, UniProt Q00537)
[3] = molecular target: T1, Thyroid hormone receptor-associated protein 3 (Homo sapiens, UniProt Q9Y2W1)
T1 sequence (Q9Y2W1 whole entry): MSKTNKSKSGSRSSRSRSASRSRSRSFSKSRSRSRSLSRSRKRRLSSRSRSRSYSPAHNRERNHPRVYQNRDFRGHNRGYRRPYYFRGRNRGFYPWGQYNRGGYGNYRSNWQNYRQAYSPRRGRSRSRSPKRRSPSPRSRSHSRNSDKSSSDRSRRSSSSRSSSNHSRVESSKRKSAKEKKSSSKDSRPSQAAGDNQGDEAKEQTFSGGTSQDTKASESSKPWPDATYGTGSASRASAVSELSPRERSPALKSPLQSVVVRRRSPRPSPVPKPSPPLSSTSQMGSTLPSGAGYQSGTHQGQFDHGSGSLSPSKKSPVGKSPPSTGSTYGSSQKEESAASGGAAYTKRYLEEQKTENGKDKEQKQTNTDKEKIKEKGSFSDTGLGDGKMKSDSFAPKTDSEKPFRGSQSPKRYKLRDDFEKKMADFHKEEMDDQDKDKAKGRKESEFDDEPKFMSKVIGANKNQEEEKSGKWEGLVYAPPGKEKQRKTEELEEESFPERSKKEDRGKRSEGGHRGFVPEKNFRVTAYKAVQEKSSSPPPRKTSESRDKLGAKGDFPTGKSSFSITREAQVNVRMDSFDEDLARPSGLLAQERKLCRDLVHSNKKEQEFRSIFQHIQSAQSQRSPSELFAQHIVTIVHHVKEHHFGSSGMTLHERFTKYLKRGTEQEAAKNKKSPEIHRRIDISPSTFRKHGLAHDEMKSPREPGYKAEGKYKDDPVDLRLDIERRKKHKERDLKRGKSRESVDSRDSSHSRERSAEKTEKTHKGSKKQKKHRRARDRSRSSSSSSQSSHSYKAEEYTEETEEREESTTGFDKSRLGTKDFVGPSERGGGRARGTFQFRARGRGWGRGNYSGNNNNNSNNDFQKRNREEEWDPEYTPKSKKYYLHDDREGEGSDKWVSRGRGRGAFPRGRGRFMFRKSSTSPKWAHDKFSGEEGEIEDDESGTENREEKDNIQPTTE

[4] = molecular target: Choline-phosphate cytidylyltransferase A (Homo sapiens, UniProt P49585)
Chain of Choline-phosphate cytidylyltransferase A (P49585 whole entry): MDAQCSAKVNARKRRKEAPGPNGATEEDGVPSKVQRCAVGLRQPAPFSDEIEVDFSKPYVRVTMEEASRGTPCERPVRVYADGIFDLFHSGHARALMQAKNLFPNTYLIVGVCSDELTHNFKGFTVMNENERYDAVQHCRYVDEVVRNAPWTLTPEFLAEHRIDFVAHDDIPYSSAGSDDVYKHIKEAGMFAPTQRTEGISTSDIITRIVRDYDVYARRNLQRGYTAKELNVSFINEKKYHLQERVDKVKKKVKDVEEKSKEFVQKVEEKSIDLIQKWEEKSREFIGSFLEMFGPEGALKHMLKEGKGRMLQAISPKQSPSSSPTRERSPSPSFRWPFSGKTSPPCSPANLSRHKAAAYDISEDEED

[5] = molecular target: T2, Dual specificity protein kinase TTK (Homo sapiens, UniProt P33981)
T2 sequence (P33981 whole entry): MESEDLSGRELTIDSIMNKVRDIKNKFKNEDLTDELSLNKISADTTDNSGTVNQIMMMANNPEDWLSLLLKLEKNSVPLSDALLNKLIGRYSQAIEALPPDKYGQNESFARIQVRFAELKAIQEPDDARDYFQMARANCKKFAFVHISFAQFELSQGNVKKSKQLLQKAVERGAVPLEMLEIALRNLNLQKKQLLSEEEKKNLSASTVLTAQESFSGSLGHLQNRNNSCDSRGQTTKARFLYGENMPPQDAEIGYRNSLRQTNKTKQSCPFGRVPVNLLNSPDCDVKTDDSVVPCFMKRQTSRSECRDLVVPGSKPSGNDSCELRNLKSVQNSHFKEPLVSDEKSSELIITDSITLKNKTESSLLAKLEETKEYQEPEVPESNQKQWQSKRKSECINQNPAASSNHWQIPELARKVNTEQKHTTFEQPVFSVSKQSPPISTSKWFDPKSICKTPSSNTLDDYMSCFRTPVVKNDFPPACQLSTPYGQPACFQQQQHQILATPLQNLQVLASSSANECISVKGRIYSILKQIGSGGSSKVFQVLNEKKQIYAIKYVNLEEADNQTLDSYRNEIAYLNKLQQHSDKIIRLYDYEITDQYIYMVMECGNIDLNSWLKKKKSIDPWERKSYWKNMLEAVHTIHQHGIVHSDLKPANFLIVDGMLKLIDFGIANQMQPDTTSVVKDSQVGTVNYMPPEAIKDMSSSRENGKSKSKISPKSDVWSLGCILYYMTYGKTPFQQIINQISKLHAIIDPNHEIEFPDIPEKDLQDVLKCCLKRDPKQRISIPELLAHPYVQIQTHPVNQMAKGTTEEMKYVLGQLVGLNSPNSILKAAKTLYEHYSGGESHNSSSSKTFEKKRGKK

[6] = molecular target: Glycogen synthase kinase-3 beta (Homo sapiens, UniProt P49841)
Chain of Glycogen synthase kinase-3 beta (P49841 whole entry): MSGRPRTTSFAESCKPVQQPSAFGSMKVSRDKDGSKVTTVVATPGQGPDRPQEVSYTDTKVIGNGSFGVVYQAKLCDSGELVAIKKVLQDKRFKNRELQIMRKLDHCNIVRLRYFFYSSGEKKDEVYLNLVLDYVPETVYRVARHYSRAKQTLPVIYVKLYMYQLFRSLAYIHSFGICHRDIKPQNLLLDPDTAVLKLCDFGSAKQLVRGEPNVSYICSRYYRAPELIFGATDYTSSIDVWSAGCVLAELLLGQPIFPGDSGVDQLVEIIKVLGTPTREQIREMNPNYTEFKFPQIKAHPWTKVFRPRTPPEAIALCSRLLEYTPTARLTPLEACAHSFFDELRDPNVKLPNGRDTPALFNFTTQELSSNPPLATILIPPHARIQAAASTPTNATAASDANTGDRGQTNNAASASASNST

[7] = molecular target: Epidermal growth factor receptor (Homo sapiens, UniProt P00533)
Chain of Epidermal growth factor receptor (P00533 whole entry): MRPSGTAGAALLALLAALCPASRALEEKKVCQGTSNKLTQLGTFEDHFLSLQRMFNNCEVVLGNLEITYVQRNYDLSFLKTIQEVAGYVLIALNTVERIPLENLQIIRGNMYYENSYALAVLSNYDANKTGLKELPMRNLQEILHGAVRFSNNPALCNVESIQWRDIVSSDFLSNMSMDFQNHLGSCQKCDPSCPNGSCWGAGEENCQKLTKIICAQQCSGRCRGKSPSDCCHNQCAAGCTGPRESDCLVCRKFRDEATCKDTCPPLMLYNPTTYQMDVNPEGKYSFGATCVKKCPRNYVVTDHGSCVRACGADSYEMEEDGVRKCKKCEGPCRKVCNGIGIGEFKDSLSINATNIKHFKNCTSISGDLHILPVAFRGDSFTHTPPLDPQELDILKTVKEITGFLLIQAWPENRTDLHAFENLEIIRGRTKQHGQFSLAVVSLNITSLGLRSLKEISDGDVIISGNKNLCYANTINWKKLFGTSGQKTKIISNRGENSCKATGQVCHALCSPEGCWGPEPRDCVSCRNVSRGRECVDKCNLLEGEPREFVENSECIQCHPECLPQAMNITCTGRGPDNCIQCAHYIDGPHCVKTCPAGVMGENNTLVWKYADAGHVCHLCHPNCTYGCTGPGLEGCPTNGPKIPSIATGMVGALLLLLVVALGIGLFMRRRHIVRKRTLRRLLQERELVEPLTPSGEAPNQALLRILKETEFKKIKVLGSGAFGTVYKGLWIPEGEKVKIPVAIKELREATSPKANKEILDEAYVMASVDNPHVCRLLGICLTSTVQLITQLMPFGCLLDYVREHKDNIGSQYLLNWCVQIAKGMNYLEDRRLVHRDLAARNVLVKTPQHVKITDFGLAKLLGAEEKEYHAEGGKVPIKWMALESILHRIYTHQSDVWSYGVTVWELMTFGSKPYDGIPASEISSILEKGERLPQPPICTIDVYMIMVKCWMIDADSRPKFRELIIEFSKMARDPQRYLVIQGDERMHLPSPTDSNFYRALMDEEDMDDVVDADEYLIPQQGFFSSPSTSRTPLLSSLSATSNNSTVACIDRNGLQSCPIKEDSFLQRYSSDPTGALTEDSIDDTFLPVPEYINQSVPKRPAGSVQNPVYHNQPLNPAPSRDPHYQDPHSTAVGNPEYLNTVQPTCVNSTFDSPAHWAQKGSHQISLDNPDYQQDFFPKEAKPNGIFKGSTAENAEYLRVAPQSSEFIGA

Chain of Hepatocyte growth factor receptor (P08581 whole entry): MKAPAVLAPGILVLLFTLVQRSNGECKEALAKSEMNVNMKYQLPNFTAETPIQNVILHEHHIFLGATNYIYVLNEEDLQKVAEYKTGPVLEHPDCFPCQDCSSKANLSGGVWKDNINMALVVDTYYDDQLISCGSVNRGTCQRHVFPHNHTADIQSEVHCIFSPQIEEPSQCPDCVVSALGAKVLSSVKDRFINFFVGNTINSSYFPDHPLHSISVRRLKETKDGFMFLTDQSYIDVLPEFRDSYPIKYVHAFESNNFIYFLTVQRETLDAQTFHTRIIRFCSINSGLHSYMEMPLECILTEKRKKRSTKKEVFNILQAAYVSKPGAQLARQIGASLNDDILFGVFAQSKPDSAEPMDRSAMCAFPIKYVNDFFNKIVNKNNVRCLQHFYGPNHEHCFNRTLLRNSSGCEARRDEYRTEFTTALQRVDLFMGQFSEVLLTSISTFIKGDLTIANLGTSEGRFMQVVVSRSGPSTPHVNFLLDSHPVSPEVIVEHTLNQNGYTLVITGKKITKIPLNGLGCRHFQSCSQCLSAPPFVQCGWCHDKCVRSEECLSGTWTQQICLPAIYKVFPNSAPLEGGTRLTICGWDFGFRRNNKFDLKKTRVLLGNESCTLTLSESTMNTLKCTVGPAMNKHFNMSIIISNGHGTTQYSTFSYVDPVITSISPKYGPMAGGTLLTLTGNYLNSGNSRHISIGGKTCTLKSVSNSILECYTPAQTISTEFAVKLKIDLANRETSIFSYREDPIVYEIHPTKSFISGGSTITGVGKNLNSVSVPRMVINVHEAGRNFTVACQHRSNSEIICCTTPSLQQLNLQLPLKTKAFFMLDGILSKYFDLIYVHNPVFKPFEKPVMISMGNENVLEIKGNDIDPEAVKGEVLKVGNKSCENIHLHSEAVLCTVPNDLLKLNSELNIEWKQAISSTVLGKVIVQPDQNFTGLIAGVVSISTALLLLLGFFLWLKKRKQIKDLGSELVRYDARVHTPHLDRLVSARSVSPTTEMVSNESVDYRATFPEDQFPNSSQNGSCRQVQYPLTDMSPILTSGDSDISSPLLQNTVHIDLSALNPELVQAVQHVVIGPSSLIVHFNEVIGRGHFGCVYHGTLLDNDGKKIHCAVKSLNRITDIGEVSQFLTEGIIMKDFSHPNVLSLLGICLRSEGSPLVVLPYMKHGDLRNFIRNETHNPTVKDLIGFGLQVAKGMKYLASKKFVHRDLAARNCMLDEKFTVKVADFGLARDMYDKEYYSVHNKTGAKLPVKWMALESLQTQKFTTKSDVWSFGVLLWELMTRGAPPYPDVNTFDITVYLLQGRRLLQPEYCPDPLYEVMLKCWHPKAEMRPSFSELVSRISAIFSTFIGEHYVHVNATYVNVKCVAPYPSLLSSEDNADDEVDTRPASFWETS
Chain of Cyclin-dependent kinase 17 (Q00537 whole entry): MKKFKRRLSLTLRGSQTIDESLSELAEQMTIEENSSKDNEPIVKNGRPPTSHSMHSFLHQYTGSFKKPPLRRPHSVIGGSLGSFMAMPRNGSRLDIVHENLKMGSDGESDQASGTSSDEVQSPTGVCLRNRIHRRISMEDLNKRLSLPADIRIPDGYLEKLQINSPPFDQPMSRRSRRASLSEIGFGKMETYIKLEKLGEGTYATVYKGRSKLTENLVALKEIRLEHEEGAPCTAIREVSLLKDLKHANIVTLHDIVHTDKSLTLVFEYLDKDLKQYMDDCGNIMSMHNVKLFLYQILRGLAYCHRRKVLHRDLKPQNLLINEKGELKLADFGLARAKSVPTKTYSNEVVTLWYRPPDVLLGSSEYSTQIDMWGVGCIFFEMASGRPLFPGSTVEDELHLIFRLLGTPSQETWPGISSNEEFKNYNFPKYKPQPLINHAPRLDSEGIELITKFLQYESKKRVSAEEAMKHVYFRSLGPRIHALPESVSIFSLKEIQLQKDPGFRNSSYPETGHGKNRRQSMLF

- Kd [1]: > 30 µM (inactive)
- Kd [2]: > 30 µM (inactive)
- Kd [3]: > 30 µM (inactive)
- Kd [4]: > 30 µM (inactive)
- Kd [5]: > 30 µM (inactive)
- Kd [6]: > 30 µM (inactive)
- Kd [7]: > 30 µM (inactive)
Structure (SMILES): Cn1c(=O)c(F)c(Nc2ccc(I)cc2F)c2c(=O)n(C[C@@H](O)CO)cnc21 [TAK-733]
